Measured values reported in patent publication US20150250166A1, “NOOTKATONE AS AN INSECTICIDE AND INSECT REPELLENT” (ALLYLIX, INC., priority 2012, published 2015).

Assays:
Format in all cases: in vivo
[1] = system: adult cat fleas (Ctenocephalides felis); test: Direct spray knockdown of adult cat fleas; details: 10% nootkatone; for cat fleas knocked down, average count of 5 trials (of 10): 0.1% BHT in isopropanol
Experimental: A direct spray formulation, containing 10% nootkatone, 0.1% butylated hydroxytoluene (BHT) in isopropanol, stored at ambient temperature and humidity, was tested for efficacy for knockdown and mortality among adult cat fleas (Ctenocephalides felis). Five replicates of 10 adult cat fleas (El Labs Inc (Soquel, Calif.)) were emptied from 9 dram vials into 5 gallon HDPE Payliner® pail liners lined with paper towels. Each replicate was sprayed manually with 1 gram±0.1 grams of the 10% nootkatone formulation from the rim of the pail liner. The spray bottle was weighed before and after treating each replicate to confirm the weight of the test sample dispensed. Five control replicates of 10 adult cat fleas were treated with isopropyl alcohol, following the same protocol. The study provided a single treatment of 10% nootkatone formulation or isopropyl alcohol. All spraying took place in a vented, stainless steel Peet Grady chamber (6×6×6 ft).
The average weight of isopropanol and 10% nootkatone formulation applied to the five replicates was 1.0 g and 1.07 g, respectively. […] Knockdown was defined as the failure of the cat flea to jump even following exhalation of a technician into the pail liner.

[2] = system: adult bed bugs (Cimex lectularius); test: Direct spray knockdown of adult bed bugs; details: for bed bug knockdown activity, in words: early time points; for bed bugs exhibiting knockdown, average count of 5 trials (of 10): 10% nootkatone, 0.1% BHT in isopropanol
Experimental: (§1) A direct spray formulation, containing 10% nootkatone (from Bedoukian Research, Inc., Product No. 800; Danbury, Conn.), 0.1% butylated hydroxytoluene (BHT) in isopropanol, stored at ambient temperature and humidity, was tested for efficacy for knockdown and mortality among adult bed bugs (Cimex lectularius). Adult bed bugs (ICR, Baltimore, Md.) used in this study were blood fed within 7 days of testing. The bed bugs were anesthetized with CO2 and five groups of ten bed bugs were transferred into 9 dram vials at least 2 hours prior to testing. Just prior to treatment, the bed bugs were transferred to 16 oz. paper solo cups with cloth glued to the bottom on the inside of the cup and a screened lid. Each replicate was then sprayed manually, using a 2-3 oz. pump sprayer, with 1 gram±0.1 grams of the 10% nootkatone formulation. Each replicate was sprayed separately from a vertical distance of 6 inches above the bed bugs. The spray bottle was weighed before and after treating each replicate to confirm the weight of the test sample dispensed. All spraying took place in a vented, stainless steel Peet Grady chamber (6×6×6 ft). […] Knockdown was defined as the inability of a bed bug to right itself when placed on its back. After the five minute time point, the bed bugs were transferred to recovery containers that hold 16 oz. paper solo cups equipped with screened lids. A further knockdown study took place at 15 minutes post treatment. Serving as control samples, five replicates of 10 adult bed bugs were treated with isopropyl alcohol alone and five replicates of 10 adult bed bugs were treated with water, following the protocol outlined above.
(§2) A direct spray formulation, containing 5% nootkatone (from Bedoukian Research, Inc., Product No. 800; Danbury, Conn.), 0.1% butylated hydroxytoluene (BHT) in acetone, stored at ambient temperature and humidity, was tested for efficacy for knockdown and mortality among adult bed bugs (Cimex lectularius) using the same procedure as described in Example 1 above. Five replicates of ten bed bugs were sprayed with 1.0 g±20% of a 5% nootkatone in acetone solution stabilized with 0.1% BHT. An additional five replicates were treated with 1.0 g±20% of tap water to serve as a control.

[3] = system: adult bed bugs (Cimex lectularius); test: Direct spray mortality of adult bed bugs; details: for bed bug mortality, in words: within the 15 minute knockdown study; for Alive, Treatment (bed bug count, of 50) / Dead, Treatment (bed bug count, of 50) / Moribund, Treatment (bed bug count, of 50): 5% nootkatone, 0.1% BHT in acetone
Experimental: as §1
After the knockdown counts were complete, the bed bugs were maintained in treatment chambers, in the laboratory at ambient light, temperature, and humidity conditions. Mortality counts were made at 24 and 48 hours post treatment. […] Table 4 below provides the average mortality data for the five replicates of bed bugs treated with water, isopropanol alone, or with 10% nootkatone in isopropanol at 24 and 48 hours.
as §2
After the knockdown counts were complete, the bed bugs were maintained in treatment chambers, in the laboratory at ambient light, temperature, and humidity conditions. Mortality counts were made at 1, 2, 3, 4 and 5 days post treatment. […] Table 5 below provides the mortality data for the replicates of bed bugs treated with water (control) or with 5% nootkatone in acetone.

[4] = time 1 (head: Minutes; text: days post treatment)
[5] = time 2 (head: Minutes; text: days post treatment)
[6] = time 3 (head: Minutes; text: days post treatment)
[7] = time 4 (head: Minutes; text: days post treatment)
[8] = time 5 (head: Minutes; text: days post treatment)
[9] = 10% nootkatone in isopropanol, 24 hr post treatment
[10] = 10% nootkatone in isopropanol, 48 hr post treatment

## C=C(C)[C@@H]1CCC2=CC(=O)C[C@@H](C)[C@]2(C)C1 [nootkatone, 4,4a,5,6,7,8-hexahydro-6-isopropenyl-4,4a-dimethyl-2(3H)-naphtalenone]
[1]
  cat flea knockdown efficacy, in words: not effective in knocking down cat fleas
[1]; 0.5 min
  cat fleas knocked down, average count of 5 trials (of 10): 0.2
[1]; 1 min
  cat fleas knocked down, average count of 5 trials (of 10): 0.2
[1]; 2 min
  cat fleas knocked down, average count of 5 trials (of 10): 0.4
[1]; 3 min
  cat fleas knocked down, average count of 5 trials (of 10): 0
[1]; 4 min
  cat fleas knocked down, average count of 5 trials (of 10): 0.2
[1]; 5 min
  cat fleas knocked down, average count of 5 trials (of 10): 0.4
[1]; 15 min
  cat fleas knocked down, average count of 5 trials (of 10): 0
[1]; 15 minutes
  fleas knocked down, in words: no fleas were knocked down
[1]; within the first 5 minutes
  fleas knocked down: no more than 4%
[2]; 5% nootkatone in acetone, 15 minutes
  bed bug knockdown compared with control, in words: no greater effect on bed bug knockdown than that observed for the control
[2]; 5% nootkatone in acetone
  bed bug knockdown activity, in words: some knockdown activity
[2]; 10% nootkatone in isopropanol, 15 minutes
  bed bug knockdown compared with isopropanol alone, in words: no greater effect on bed bug knockdown than that observed for isopropanol alone
[2]; 10% nootkatone in isopropanol
  bed bug knockdown activity, in words: some knockdown activity
[2]; 0.5 min post treatment
  bed bugs exhibiting knockdown, average count of 5 trials (of 10): 1.6
[2]; 1 min post treatment
  bed bugs exhibiting knockdown, average count of 5 trials (of 10): 2.6
[2]; 2 min post treatment
  bed bugs exhibiting knockdown, average count of 5 trials (of 10): 4.6
[2]; 3 min post treatment
  bed bugs exhibiting knockdown, average count of 5 trials (of 10): 5
[2]; 4 min post treatment
  bed bugs exhibiting knockdown, average count of 5 trials (of 10): 4.6
[2]; 5 min post treatment
  bed bugs exhibiting knockdown, average count of 5 trials (of 10): 4.8
[2]; 15 min post treatment
  bed bugs exhibiting knockdown, average count of 5 trials (of 10): 4.4
[3]; 5% nootkatone in acetone, 5 days
  bed bug mortality compared with control, in words: did not kill bed bugs after 5 days above mortality levels observed for the control
[3]; 5% nootkatone in acetone
  bed bug mortality, in words: No mortality was observed
[3]; [4]
  Alive, Treatment (bed bug count, of 50): 50
  Dead, Treatment (bed bug count, of 50): 0
  Moribund, Treatment (bed bug count, of 50): 0
[3]; [5]
  Alive, Treatment (bed bug count, of 50): 49
  Dead, Treatment (bed bug count, of 50): 1
  Moribund, Treatment (bed bug count, of 50): 0
[3]; [6]
  Alive, Treatment (bed bug count, of 50): 48
  Dead, Treatment (bed bug count, of 50): 1
  Moribund, Treatment (bed bug count, of 50): 1
[3]; [7]
  Alive, Treatment (bed bug count, of 50): 45
  Dead, Treatment (bed bug count, of 50): 2
  Moribund, Treatment (bed bug count, of 50): 3
[3]; [8]
  Alive, Treatment (bed bug count, of 50): 42
  Dead, Treatment (bed bug count, of 50): 5
  Moribund, Treatment (bed bug count, of 50): 3
[3]; 10% nootkatone in isopropanol, 24 or 48 hours
  bed bug mortality compared with isopropanol alone, in words: did not kill bed bugs after 24 or 48 hours above mortality levels observed for isopropanol alone
[3]; [9]
  Alive, average bed bug count of 5 trials (of 10): 6.4
  Dead, average bed bug count of 5 trials (of 10): 3.6
  Moribund, average bed bug count of 5 trials (of 10): 0
[3]; [10]
  Alive, average bed bug count of 5 trials (of 10): 5.2
  Dead, average bed bug count of 5 trials (of 10): 4.8
  Moribund, average bed bug count of 5 trials (of 10): 0
[3]; 10% nootkatone in isopropanol
  bed bug mortality, in words: No mortality was observed
